Test results: paper PMC7469689, “Substituted 4,5′-Bithiazoles as Catalytic Inhibitors of Human DNA Topoisomerase IIα” (Journal of Chemical Information and Modeling, 2020)
Each block holds one compound with its values, some of them ahead of it.

Assays:
[1] = molecular target: T1, human topo IIα (Homo sapiens, UniProt P11388); assay: HTS relaxation assay of human topo IIα; type: biochemical
T1 construct: purchased Inspiralis (Norwich, U.K.)

[2] = molecular target: bacterial DNA gyrase; set-up: method as in earlier work; details: previous virtual screening campaign; cited from earlier work
[3] = tested on: HepG2 cells; assay: MTS cytotoxicity assay, HepG2; type: cell-based, human; details: 24 h, one concentration (200, 100 or 50 μM by solubility), vs untreated control
Source text: (§1) We have determined the cytotoxicity of the compounds using the human breast cancer MCF-7 and human hepatocellular carcinoma HepG2 cancer cell lines by standard 3-(4,5-dimethylthiazol-2-yl)-5-(3-carboxymethoxyphenyl)-2-(4-sulfophenyl)-2H-tetrazolium (MTS) assay.[65] The two selected human cancer cell lines are representative and well-established systems for the cell-based evaluation of potential cancer drugs. Etoposide was again used as a positive control (PC). We performed initial screening of compounds 1–14 at one concentration.
(§2) Cytotoxic activity of studied compounds was determined in two human cancer cell lines: hepatocellular carcinoma (HepG2) and breast cancer (MCF-7) cells. Both cell lines were obtained from ATCC. […] After the exposure of cells to the tested compounds, their viability was determined using the MTS assay.
(§3) The cells were seeded at densities of 8000 and 7000 cells/well for HepG2 and MCF-7 cells, respectively, in 200 μL of complete growth medium onto 96-well microtiter plates (Nunc, Thermo Fisher Scientific, Waltham, MA) and were left overnight at 37 °C to attach. […] After 3 h incubation (37 °C, 5% CO2), the absorbance was determined at 490 nm using a spectrofluorometer Synergy MX (BioTek, Winooski, VT). […] Cell viability was calculated by comparing the optical density (OD) of the wells with exposed cells with the wells of solvent control cells, and the results are shown as percentage of cell viability ± SD. […] The EC50 values were determined utilizing nonlinear regression analysis available in GraphPad Prism 7.0 software. Statistically significant difference between control and treated groups was determined by one-way analysis of variance combined with Dunnett’s multiple comparison test.

[4] = tested on: MCF-7 cells; assay: MTS cytotoxicity assay, MCF-7; type: cell-based, human; details: 24 h, one concentration (200, 100 or 50 μM by solubility), vs untreated control
Source text: as §1, §2, §3

[5] = Solubility observations; type: physicochemical; details: cell growth medium
[6] = molecular target: T1, human topo IIα; assay: ATPase activity (ATP hydrolysis) assay, pyruvate kinase/lactate dehydrogenase coupled; type: biochemical
[7] = molecular target: T1, human topo IIα; assay: Human topo IIα-mediated kDNA decatenation assay; type: biochemical
Description: (§4) We made use of the human topo II decatenation assay kit from Inspiralis (Norwich, U.K.) to assess the ability of selected compounds to impede DNA decatenation.[89],[90] It was performed for topo IIα and topo IIβ isoforms using the protocol as described previously.[35]

[8] = set-up: method as in doi:10.1039/jr9480002240; details: first protonation on the ring nitrogen; cited from earlier work
[9] = molecular target: T1, human topo IIα; assay: Human topo IIα-mediated cleavage assay; type: biochemical; details: for linear DNA formation in cleavage assay (in words): four concentrations
Source text: To determine whether compounds act as catalytic inhibitors, a cleavage assay was next performed for compounds 1 and 9.
We performed the assay in collaboration with Inspiralis (Norwich, U.K.).

[10] = molecular target: T2, human topo IIβ (Homo sapiens, UniProt Q02880); assay: Human topo IIβ-mediated kDNA decatenation assay; type: biochemical
T2 construct: purchased Inspiralis (Norwich, U.K.)
Description: We were also interested in whether compounds can act on both isoforms of the human topo II. Thus, we performed human topo IIβ decatenation assays for compounds 1 and 9. […] (see also Tables S5 and S6 for more details).
as §4

[11] = 500 μM (compound 1: solubility problems, erratic readings)

T1 sequence (P11388 whole entry): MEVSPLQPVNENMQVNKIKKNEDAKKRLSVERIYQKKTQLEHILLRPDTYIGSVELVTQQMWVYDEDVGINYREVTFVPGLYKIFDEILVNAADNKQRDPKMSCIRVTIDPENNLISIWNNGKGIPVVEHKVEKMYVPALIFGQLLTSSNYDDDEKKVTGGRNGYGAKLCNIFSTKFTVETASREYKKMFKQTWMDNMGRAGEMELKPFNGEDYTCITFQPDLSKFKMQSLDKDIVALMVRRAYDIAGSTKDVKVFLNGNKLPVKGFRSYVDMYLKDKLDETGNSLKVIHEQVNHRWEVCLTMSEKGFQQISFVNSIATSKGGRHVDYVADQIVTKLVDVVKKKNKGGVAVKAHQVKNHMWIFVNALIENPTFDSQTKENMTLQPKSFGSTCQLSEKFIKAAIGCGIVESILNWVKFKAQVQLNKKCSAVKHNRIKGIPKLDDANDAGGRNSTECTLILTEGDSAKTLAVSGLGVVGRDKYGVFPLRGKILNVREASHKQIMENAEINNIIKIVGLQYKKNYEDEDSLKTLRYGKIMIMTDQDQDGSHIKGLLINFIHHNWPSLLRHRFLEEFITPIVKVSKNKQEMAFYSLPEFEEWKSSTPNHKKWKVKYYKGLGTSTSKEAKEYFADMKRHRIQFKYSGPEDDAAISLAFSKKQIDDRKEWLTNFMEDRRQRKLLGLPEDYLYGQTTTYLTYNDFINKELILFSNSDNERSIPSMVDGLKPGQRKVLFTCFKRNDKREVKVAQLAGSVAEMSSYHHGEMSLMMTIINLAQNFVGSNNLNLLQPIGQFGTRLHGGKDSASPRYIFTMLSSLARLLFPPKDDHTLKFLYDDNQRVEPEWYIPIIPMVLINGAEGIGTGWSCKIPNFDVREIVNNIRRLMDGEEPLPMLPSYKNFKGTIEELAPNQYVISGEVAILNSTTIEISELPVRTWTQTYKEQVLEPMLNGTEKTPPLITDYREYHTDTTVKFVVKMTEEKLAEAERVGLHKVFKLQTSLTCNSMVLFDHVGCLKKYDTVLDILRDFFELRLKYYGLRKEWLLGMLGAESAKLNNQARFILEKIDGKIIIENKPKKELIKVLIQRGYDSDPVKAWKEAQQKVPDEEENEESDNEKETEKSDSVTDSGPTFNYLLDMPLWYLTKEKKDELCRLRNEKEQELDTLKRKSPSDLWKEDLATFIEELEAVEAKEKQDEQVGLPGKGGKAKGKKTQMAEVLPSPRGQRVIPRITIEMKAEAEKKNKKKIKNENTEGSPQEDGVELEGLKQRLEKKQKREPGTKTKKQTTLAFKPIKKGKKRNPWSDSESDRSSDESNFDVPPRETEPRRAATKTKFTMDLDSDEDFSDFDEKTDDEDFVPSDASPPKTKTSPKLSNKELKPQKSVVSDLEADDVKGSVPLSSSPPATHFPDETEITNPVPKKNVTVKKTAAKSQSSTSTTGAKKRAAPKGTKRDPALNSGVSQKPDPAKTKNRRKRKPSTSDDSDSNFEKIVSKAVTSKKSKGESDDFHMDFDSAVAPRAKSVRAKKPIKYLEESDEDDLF
T2 sequence (Q02880 whole entry): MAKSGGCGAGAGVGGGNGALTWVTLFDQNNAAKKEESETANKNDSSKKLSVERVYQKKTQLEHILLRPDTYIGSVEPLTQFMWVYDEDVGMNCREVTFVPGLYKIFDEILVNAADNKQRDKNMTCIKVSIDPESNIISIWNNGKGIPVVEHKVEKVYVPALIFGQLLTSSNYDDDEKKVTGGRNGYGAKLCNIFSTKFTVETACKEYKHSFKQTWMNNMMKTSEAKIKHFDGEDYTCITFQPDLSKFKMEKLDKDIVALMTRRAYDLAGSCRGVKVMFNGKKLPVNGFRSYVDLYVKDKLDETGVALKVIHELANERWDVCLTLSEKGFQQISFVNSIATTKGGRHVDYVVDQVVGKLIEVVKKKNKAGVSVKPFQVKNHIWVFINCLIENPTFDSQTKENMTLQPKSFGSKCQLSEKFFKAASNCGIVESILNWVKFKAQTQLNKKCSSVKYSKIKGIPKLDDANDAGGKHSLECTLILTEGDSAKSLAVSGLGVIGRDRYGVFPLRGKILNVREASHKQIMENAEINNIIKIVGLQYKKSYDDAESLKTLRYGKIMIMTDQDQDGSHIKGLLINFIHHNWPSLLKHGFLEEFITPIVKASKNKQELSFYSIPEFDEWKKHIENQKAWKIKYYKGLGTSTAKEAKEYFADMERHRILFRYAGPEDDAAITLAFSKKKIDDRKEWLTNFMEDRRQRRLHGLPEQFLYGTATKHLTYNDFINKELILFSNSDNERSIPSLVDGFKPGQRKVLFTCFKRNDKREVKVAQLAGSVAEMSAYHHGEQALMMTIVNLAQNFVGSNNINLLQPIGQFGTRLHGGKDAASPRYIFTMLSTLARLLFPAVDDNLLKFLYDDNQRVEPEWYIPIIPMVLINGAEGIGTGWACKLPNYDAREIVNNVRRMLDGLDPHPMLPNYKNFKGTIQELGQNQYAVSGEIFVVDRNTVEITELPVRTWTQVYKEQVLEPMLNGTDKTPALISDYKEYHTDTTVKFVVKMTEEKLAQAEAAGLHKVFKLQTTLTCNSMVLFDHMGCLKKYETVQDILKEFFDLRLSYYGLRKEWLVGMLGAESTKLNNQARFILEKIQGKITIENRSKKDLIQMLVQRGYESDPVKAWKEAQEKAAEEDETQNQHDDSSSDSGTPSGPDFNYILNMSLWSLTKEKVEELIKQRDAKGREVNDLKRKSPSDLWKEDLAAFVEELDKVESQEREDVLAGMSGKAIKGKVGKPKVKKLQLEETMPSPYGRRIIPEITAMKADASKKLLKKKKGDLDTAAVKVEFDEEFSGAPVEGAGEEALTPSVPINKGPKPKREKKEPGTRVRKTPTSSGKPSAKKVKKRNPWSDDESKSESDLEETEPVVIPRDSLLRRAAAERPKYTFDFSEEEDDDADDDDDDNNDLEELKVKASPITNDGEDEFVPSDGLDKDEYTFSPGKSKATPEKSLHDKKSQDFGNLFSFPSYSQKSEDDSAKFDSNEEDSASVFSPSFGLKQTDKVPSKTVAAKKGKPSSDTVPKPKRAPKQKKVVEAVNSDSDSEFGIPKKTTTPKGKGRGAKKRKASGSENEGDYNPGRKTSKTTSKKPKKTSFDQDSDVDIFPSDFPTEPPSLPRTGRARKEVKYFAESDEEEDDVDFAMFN

IC50 [1]: 134 µM
SMILES: CC(=O)Nc1nc(C)c(-c2csc(Nc3cccc(C(=O)O)c3)n2)s1 [Compound 11]
reduction of cell viability, initial cytotoxicity screening [3]: no or only minor effects | reduction of cell viability, initial cytotoxicity screening [4]: no or only minor effects

IC50 [1]: 357 µM
SMILES: CC(=O)Nc1nc(C)c(-c2csc(Nc3ccccc3)n2)s1 [Compound 14]

IC50 [1]: 30.1 µM
SMILES: Cc1cc(NS(=O)(=O)c2ccc(Nc3nc(-c4sc(N)nc4C)cs3)cc2)no1 [Compound 4]

Rate ATPase activity ([6]; 10 μM control): 0.14 µmol/min
SMILES: CO[C@@H]1[C@@H](OC(N)=O)[C@@H](O)[C@H](Oc2ccc3c(O)c(NC(=O)c4ccc(O)c(CC=C(C)C)c4)c(=O)oc3c2C)OC1(C)C [novobiocin, reference compound]

inhibition at 125 µM ([7]; 125 μM): 26% | inhibition at 500 µM ([7]; 500 μM): 64% | IC50 [1]: 22.7 µM
SMILES: COc1ccc(Nc2nc(-c3sc(NC(C)=O)nc3C)cs2)cc1 [Compound 10]

% Linear DNA (first column) ([9]; 3.9 μM): 5.49% | % Linear DNA (second column) ([9]; 3.9 μM): 7.03% | % Linear DNA (first column) ([9]; 31.5 μM): 7.77% | % Linear DNA (second column) ([9]; 31.5 μM): 6.75% | % Linear DNA (first column) ([9]; 125 μM): 4.84% | % Linear DNA (second column) ([9]; 125 μM): 4.60% | % Linear DNA (first column) ([9]; 500 μM): 2.95% | % Linear DNA (second column) ([9]; 500 μM): 2.25% | IC50 [1]: 60 µM
SMILES: CC(=O)Nc1ccc(Nc2nc(-c3sc(NC(C)=O)nc3C)cs2)cc1 [Compound 9]
linear DNA formation in cleavage assay (in words) [9]: did not reveal a significant amount of linear DNA above the background level

% Decatenated Average ([10]; 3.9 μM): 100.0% | % Decatenated Assay 1 ([10]; 500 μM): 15.0% | % Linear DNA (first column) ([9]; 3.9 μM): 22.76% | % Linear DNA (second column) ([9]; 3.9 μM): 11.88% | % Linear DNA (first column) ([9]; 31.5 μM): 33.00% | % Linear DNA (second column) ([9]; 31.5 μM): 36.26% | % Linear DNA (first column) ([9]; 125 μM): 45.35% | % Linear DNA (second column) ([9]; 125 μM): 36.91% | % Linear DNA (first column) ([9]; 500 μM): 43.03% | % Linear DNA (second column) ([9]; 500 μM): 48.40% | Percentage ATPase activity Run 1 ([6]; 3.9 μM): 52.71% | Percentage ATPase activity Run 2 ([6]; 3.9 μM): 51.94% | Percentage ATPase activity Run 1 ([6]; 31.5 μM): 36.43% | Percentage ATPase activity Run 2 ([6]; 31.5 μM): 37.21% | Percentage ATPase activity Run 1 ([6]; 125 μM): 30.23% | Percentage ATPase activity Run 2 ([6]; 125 μM): 37.21% | Percentage ATPase activity Run 1 [6, 11]: 0% | Percentage ATPase activity Run 2 [6, 11]: 4.65%
SMILES: COc1cc([C@@H]2c3cc4c(cc3[C@@H](O[C@@H]3O[C@@H]5CO[C@@H](C)O[C@H]5[C@H](O)[C@H]3O)[C@H]3COC(=O)[C@H]23)OCO4)cc(OC)c1O [etoposide, reference compound]
linear DNA formation in cleavage assay (in words) [9]: poison activity

IC50 [1]: 33.7 µM
SMILES: CC(=O)Nc1nc(C)c(-c2csc(Nc3cccc(O)c3)n2)s1 [Compound 7]

Continued, compound first:

SMILES: CC(=O)Nc1nc(C)c(-c2csc(Nc3ccc(O)cc3)n2)s1 [Compound 12]
IC50 [1]: 193 µM | IC50 [2]: 30 µM

SMILES: CC(=O)Nc1nc(C)c(-c2csc(Nc3ccc(C(=O)O)cc3)n2)s1 [Compound 8]
reduction of cell viability, initial cytotoxicity screening [3]: no or only minor effects | reduction of cell viability, initial cytotoxicity screening [4]: no or only minor effects | IC50 [1]: 120 µM | IC50 [2]: 5.5 µM

SMILES: CC(=O)c1ccc(Nc2nc(-c3sc(N)nc3C)cs2)cc1 [Compound 3]
solubility in the cell growth medium [5]: low solubility | IC50 [1]: 222 µM

SMILES: Cc1nc(N)sc1-c1csc(Nc2ccc(S(N)(=O)=O)cc2)n1 [Compound 5]
IC50 [1]: 70.1 µM | IC50 [2]: 8.2 µM

SMILES: CCC(=O)Nc1nc(C)c(-c2csc(Nc3ccc(C(=O)O)cc3)n2)s1 [Compound 13]
IC50 [1]: 123 µM | IC50 [2]: 1.1 µM

SMILES: Cc1cc(O)ccc1Nc1nc(-c2sc(N)nc2C)cs1 [Compound 2]
IC50 [1]: 35.8 µM

SMILES: Cc1nc(N)sc1-c1csc(Nc2ccc(C(=O)O)c(O)c2)n1 [Compound 6]
reduction of cell viability, initial cytotoxicity screening [3]: no or only minor effects | reduction of cell viability, initial cytotoxicity screening [4]: no or only minor effects | IC50 [1]: 37.7 µM | IC50 [2]: 67 µM

SMILES: Nc1nccs1 [2-aminothiazole]
pKa [8]: 5.4
